One series deals with EWS-FLI1 mRNA. Description: Relative mRNA expression (qRT-PCR) of EWS-FLI1 in TC-32 cells. In kind it is cell-based. The conditions noted are these: 6 and 12 h treatments at GI50. How it is done:
(§1) TC-32 cells were seeded in 6-well plates at a density of 300,000 cells/well. […] After 6 and 12 h treatments media was removed. Cells were washed with DPBS and 500 μL of 0.05% Trypsin with 0.53 mM EDTA (Corning, Corning, N.Y.) was added. After a 2-3 min incubation, cells detached from the plate and 1 mL of fresh RPMI media was immediately added. Cells were collected in 1.5 mL tubes on ice and centrifuged to a pellet at 1200× g for 5 min. Supernatant was removed and cell pellets were lysed with 600 μL of RLT lysis buffer (Qiagen, Hilden, Germany). Lysates were centrifuged through QIAshredder inserts for complete cell disruption (Qiagen, Hilden, Germany). RNeasy mini spin columns were used to isolate pure RNA (Qiagen, Hilden, Germany). RNA concentrations were measured using NanoDrop 2000 Spectrometer (Thermo Fisher Scientific, Waltham, Mass.) and a 100 ng/μL stock solution was prepared. RNA (1 μg) was used to prepare cDNA with a MultiScribe reverse transcriptase (Thermo Fisher Scientific, Waltham, Mass.). qRT-PCR reactions were conducted using Maxima SYBR green Taq DNA Polymerase (Thermo Fisher Scientific, Waltham, Mass.). EpMotion5070 (Eppendorf, Hamburg, Germany) robot was used to mix reactions in 384 well plates and thermocycling was completed on a QuantStudio 7 Flex (Thermo Fisher Scientific, Waltham, Mass.). […]
For orientation: In qPCR the cycle at which signal appears reflects the starting amount.

The subject of another series is NR0B1 mRNA. Description: Relative mRNA expression (qRT-PCR) of NR0B1 in TC-32 cells. In kind it is cell-based. The conditions noted are these: 6 and 12 h treatments at GI50. How it is done: as §1
The test system of series [1] is NR0B1 promoter (binding promoter of EWS-FLI1). Description: NR0B1 promoter luciferase reporter assay in stably transfected TC-32 cells. The note with it: 12 h treatment. In kind it is cell-based. An excerpt:
Full-length NR0B1 promoter sequence was PCR amplified using Q5 high-fidelity DNA polymerase (New England Biolabs, Ipswich, Mass.) from genomic DNA of TC-32 cells and cloned into the pGLUC-Basic 2 vector (New England Biolabs, Ipswich, Mass.). XhoI and KpnI restriction sites were incorporated into the primers. After restriction enzyme (New England Biolabs, Ipswich, Mass.) digest and purification by gel electrophoresis, the target amplicon was ligated into the pGLUC-Basic 2 vector using T4 DNA ligase (Thermo Fisher Scientific, Waltham, Mass.). Chemically competent TOP10 E. coli cells were used to propagate vectors under ampicillin selection (100 μg/mL) (Thermo Fisher Scientific, Waltham, Mass.). The resulting vectors were extracted and purified using GeneJET plasmid prep kit (Thermo Fisher Scientific, Waltham, Mass.). […]
Selected TC-32 cells, expressing either NR0B1 or CMV luciferase reporter vectors, were seeded in clear 96-well plates at a density of 10,000 cells/well. […] Lysates (80 μL) were transferred to a white luminescence plate. Luciferase substrate, either coelenterazine or D-luciferin (50 μL of 1× solution), for NR0B1 or CMV vectors, respectively, was added in a Glomax 96 microplate luminometer (Promega, Madison, Wis.) and luminescence was immediately measured. […] Luminescence results were normalized to cell viability.
(Reporter assays use an easily measured gene product as a stand-in for the process of interest.)

The next series relates to CMV promoter. As to the kind of experiment: CMV promoter luciferase reporter assay in stably transfected TC-32 cells (non-specific control). The note with it: 12 h, treated up to 10 μM. In kind it is cell-based. An excerpt:
Full-length NR0B1 promoter sequence was PCR amplified using Q5 high-fidelity DNA polymerase (New England Biolabs, Ipswich, Mass.) from genomic DNA of TC-32 cells and cloned into the pGLUC-Basic 2 vector (New England Biolabs, Ipswich, Mass.). XhoI and KpnI restriction sites were incorporated into the primers. After restriction enzyme (New England Biolabs, Ipswich, Mass.) digest and purification by gel electrophoresis, the target amplicon was ligated into the pGLUC-Basic 2 vector using T4 DNA ligase (Thermo Fisher Scientific, Waltham, Mass.). Chemically competent TOP10 E. coli cells were used to propagate vectors under ampicillin selection (100 μg/mL) (Thermo Fisher Scientific, Waltham, Mass.). The resulting vectors were extracted and purified using GeneJET plasmid prep kit (Thermo Fisher Scientific, Waltham, Mass.). The purified vector was transfected into TC-32 cells using lipofectamine 3000 (Thermo Fisher Scientific, Waltham, Mass.) with subsequent G418 selection (1 mg/mL) (VWR, Radnor, Pa.). Separately, TC-32 cells were transfected with pCMV-Red Firefly Vector (Thermo Fisher Scientific, Waltham, Mass.) with subsequent puromycin selection (0.1 mg/mL) (Sigma, St. Louis, Mo.) as a control.
Selected TC-32 cells, expressing either NR0B1 or CMV luciferase reporter vectors, were seeded in clear 96-well plates at a density of 10,000 cells/well. […] After a 12 h treatment, media was removed and cells were washed 3 times with DPBS (Thermo Fisher Scientific, Waltham, Mass.). Cells were directly lysed on a plate shaker for 30 min at room temperature using 100 μL of passive membrane lysis solution. Lysates (80 μL) were transferred to a white luminescence plate. Luciferase substrate, either coelenterazine or D-luciferin (50 μL of 1× solution), for NR0B1 or CMV vectors, respectively, was added in a Glomax 96 microplate luminometer (Promega, Madison, Wis.) and luminescence was immediately measured. Delay before and after injections were set to the default of 0.4 s and a 10 s integration time was used. All reagents used in this assay were from the dual luciferase reporter assay system (Promega, Madison, Wis.). Concurrently, an additional 96 well plate was seeded and treated under the exact same conditions to determine cell viability using resazurin assay. Luminescence results were normalized to cell viability.

Series [2] concerns TC-32 (Ewing sarcoma, EWS-FLI1 Type 1) cell line. The note with it: for TC-32 Ewing sarcoma EWS-FLI1 Type 1 GI50: 72 h growth inhibition, TC-32 cells; for GI50 ratio PC-3:TC-32: selectivity, GI50 in PC-3 over GI50 in TC-32.
For series [3], the system named is VCaP prostate cancer cells (TMPRSS2-ERG). Description: 72 h GI50 assay in VCaP. The note with it: for GI50: read-out: VCaP Prostate Cancer TMPRSS2-ERG GI50, 72 h growth inhibition, VCaP cells; for Ratio of median GI50 Prostate cells lacking TMPRSS2-ERG:VCaP: selectivity for VCaP over other prostate cancer cell lines.
Series [4] concerns 5838 Ewing sarcoma cells (EWS-ERG). Description: 72 h GI50 assay in 5838. The note with it: for GI50: read-out: 5838 Ewing Sarcoma EWS-ERG GI50, 72 h growth inhibition, 5838 cells; for Ratio of median GI50 Non-Ewing sarcoma cell lines (cf Table 3):5838: selectivity for 5838 cells.
The test system of series [5] is ES-2 Ewing sarcoma cells (EWS-FLI1 Type 3). Description: 72 h GI50 assay in ES-2. The note with it: read-out: ES-2 EWS-FLI1 Type 3 GI50; 72 h growth inhibition.
Another series concerns HeLa cells. As to the kind of experiment: 72 h GI50 assay in HeLa. The conditions noted are these: read-out: HeLa GI50; 72 h growth inhibition.
The test system of series [6] is RD-ES Ewing sarcoma cells (EWS-FLI1 Type 2). Description: 72 h GI50 assay in RD-ES. The note with it: read-out: RD-ES EWS-FLI1 Type 2 GI50; 72 h growth inhibition.
The test system of series [7] is A-673 Ewing sarcoma cells (EWS-FLI1 Type 1). As to the kind of experiment: 72 h GI50 assay in A-673. The note with it: read-out: A-673 EWS-FLI1 Type 1 GI50; 72 h growth inhibition.
The subject of another series is PANC-1 cells. As to the kind of experiment: 72 h GI50 assay in PANC-1. The note with it: read-out: PANC-1 GI50; 72 h growth inhibition.
For a further series, the system named is HCT 116 cells. As to the kind of experiment: 72 h GI50 assay in HCT 116. The conditions noted are these: read-out: HCT 116 GI50; 72 h growth inhibition.
Series [8] deals with Ewing sarcoma cell lines (TC-32, 5838, RD-ES, TC-71, A-673, ES-2, ES-7, ES-8). Description: Median GI50 in panel of Ewing sarcoma cell lines. The note with it: for Ratio of Median GI50 non-Ewing sarcoma:Ewing sarcoma (Selectivity Index): median GI50 non-Ewing panel over Ewing panel; for GI50: read-out: Median GI50 in Ewing sarcoma cell lines, median over 8 Ewing sarcoma cell lines, 72 h; for Selectivity Index ratio Analogues:MTM (1): selectivity index relative to MTM (1).

Entries after “also recorded” stand apart in the source; their conditions may differ.

Here are results for 2 molecules from patent publication US11224609B2, “Mithramycin derivatives having increased selectivity and anti-cancer activity” (University of Kentucky Research Foundation, priority 2017, dated 2022).

Broadly, the GI50 is the concentration that inhibits growth by half.

Consider `COC(=O)C(Cc1c[nH]c2ccccc12)NC(=O)C(Cc1ccccc1)NC(=O)C(OC)C1Cc2cc3cc(OC4CC(OC5CC(O)C(O)C(C)O5)C(O)C(C)O4)c(C)c(O)c3c(O)c2C(=O)C1OC1CC(OC2CC(OC3CC(C)(O)C(O)C(C)O3)C(O)C(C)O2)C(O)C(C)O1` (stereo not shown) [Analogue 60, MTMSA-Phe-Trp], for which, in the series on EWS-FLI1 mRNA, the “EWS-FLI1 mRNA expression” value is on record as “decreased”. In addition, in the series on NR0B1 mRNA, the “NR0B1 mRNA expression” value is given as “decreased”. Moreover, the “NR0B1 promoter driven luciferase signal” value in [1] was “decreased”. In addition, the entries for the “CMV promoter driven luciferase signal” value with CMV promoter and in the series on CMV promoter (listed as MTMSA-Phe-Trp (60)) were “no effect at all; also recorded: did not decrease” and “Lack of effect”, respectively. Besides, the “TC-32 Ewing sarcoma EWS-FLI1 Type 1 GI50” value in series [2] amounted to 0.047 µM. Further, in series [2], the “GI50 ratio PC-3:TC-32” value worked out at 24.0. The GI50 in series [3] was determined as 0.039 µM; in series [4], 0.149 µM; in [5], 0.078 µM; in the series on HeLa cells, 0.557 µM; in series [6], 0.05 µM; in [7], 0.168 µM. Moreover, the results for the GI50 (in the series on PANC-1 cells; in the series with HCT 116 cells; in series [8]) were 0.574 µM, 0.449 µM and 0.052 µM, respectively. Further, in series [3], the “Ratio of median GI50 Prostate cells lacking TMPRSS2-ERG:VCaP” value is given as 25.4. For the same molecule, the “Ratio of median GI50 Non-Ewing sarcoma cell lines (cf Table 3):5838” value in series [4] is given as 6.7. Moreover, in [8], the “Ratio of Median GI50 non-Ewing sarcoma:Ewing sarcoma (Selectivity Index)” value was 19.1. Besides, in series [8], the “Selectivity Index ratio Analogues:MTM (1)” value was 12.7.

Take `COC(=O)C(Cc1c[nH]c2ccccc12)NC(=O)C(Cc1c[nH]c2ccccc12)NC(=O)C(OC)C1Cc2cc3cc(OC4CC(OC5CC(O)C(O)C(C)O5)C(O)C(C)O4)c(C)c(O)c3c(O)c2C(=O)C1OC1CC(OC2CC(OC3CC(C)(O)C(O)C(C)O3)C(O)C(C)O2)C(O)C(C)O1` (stereo not shown) [Analogue 61, MTMSA-Trp-Trp]: the “EWS-FLI1 mRNA expression” value in the series with EWS-FLI1 mRNA is “decreased”. The “NR0B1 mRNA expression” value in the series on NR0B1 mRNA was “decreased”. Besides, the “NR0B1 promoter driven luciferase signal” value in [1] is recorded as “decreased”. Moreover, the entries for the “CMV promoter driven luciferase signal” value in the series on CMV promoter and in the series with CMV promoter (listed as MTMSA-Trp-Trp (61)) were “no effect at all; also recorded: did not decrease” and “Lack of effect”, respectively. For the same molecule, in series [2], the “TC-32 Ewing sarcoma EWS-FLI1 Type 1 GI50” value worked out at 0.041 µM. Moreover, the “GI50 ratio PC-3:TC-32” value in series [2] is recorded as 13.9. Besides, the GI50 is 0.031 µM in [3]; 0.053 µM in [4]; 0.123 µM in [5]; 0.951 µM in the series on HeLa cells; 0.057 µM in series [6]; 0.364 µM in [7]. Moreover, the GI50 with PANC-1 cells was determined as 0.64 µM; in the series on HCT 116 cells it was 0.198 µM; in [8], 0.055 µM. The “Ratio of median GI50 Prostate cells lacking TMPRSS2-ERG:VCaP” value in [3] was found to be 18.3. The “Ratio of median GI50 Non-Ewing sarcoma cell lines (cf Table 3):5838” value in series [4] amounted to 16.2. For the same molecule, the “Ratio of Median GI50 non-Ewing sarcoma:Ewing sarcoma (Selectivity Index)” value in series [8] is listed as 15.6. The “Selectivity Index ratio Analogues:MTM (1)” value in series [8] amounted to 10.4.
